Assay results from PubChem BioAssay (NCI).
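Compound exposure: 48 hours, 5 concentrations, 96-well plates. The concentration for 50% growth inhibition is given as GI50. The concentration for full growth arrest is given as TGI.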

Columns and labels:
Test in all cases: DTP human tumour cell line panel, 48 h
M14 melanoma = tested on: M14 melanoma
BT-549 breast = tested on: BT-549 breast
HT29 colon = tested on: HT29 colon
CCRF-CEM leukemia = tested on: CCRF-CEM leukemia
A549 NSCLC = tested on: A549 NSCLC
K-562 leukemia = tested on: K-562 leukemia
UACC-62 melanoma = tested on: UACC-62 melanoma
SF-295 CNS = tested on: SF-295 CNS
SK-MEL-5 melanoma = tested on: SK-MEL-5 melanoma
OVCAR-4 ovarian = tested on: OVCAR-4 ovarian

Structure (SMILES) | GI50 (M14 melanoma) [µM] | TGI (M14 melanoma) [µM] | GI50 (BT-549 breast) [µM] | TGI (BT-549 breast) [µM] | GI50 (HT29 colon) [µM] | TGI (HT29 colon) [µM] | GI50 (CCRF-CEM leukemia) [µM] | TGI (CCRF-CEM leukemia) [µM] | GI50 (A549 NSCLC) [µM] | TGI (A549 NSCLC) [µM] | GI50 (K-562 leukemia) [µM] | TGI (K-562 leukemia) [µM] | GI50 (UACC-62 melanoma) [µM] | TGI (UACC-62 melanoma) [µM] | GI50 (SF-295 CNS) [µM] | TGI (SF-295 CNS) [µM] | GI50 (SK-MEL-5 melanoma) [µM] | TGI (SK-MEL-5 melanoma) [µM] | GI50 (OVCAR-4 ovarian) [µM] | TGI (OVCAR-4 ovarian) [µM]
Cn1cc(C2=C(c3c4n(c5ccccc35)CCNC4)C(=O)NC2=O)c2ccccc21 | 12.4 | > 25 | 16.7 | > 25 | 5.2 | > 25 | 8.91 | > 25 | 11.8 | > 25 | 4.1 | > 25 | 7.63 | > 25 | 5.69 | > 25 | 4.82 | > 17.2 | > 9.74 | > 25
CN(C)C1CCN(Cc2ccc(NC(=O)c3cncc(C#Cc4cnc(N)c5ncccc45)c3)cc2C(F)(F)F)CC1 | 0.962 | 1.87 | 7.77 | 15.3 | 1.3 | 6.82 | 1.54 | 6.07 | 8.25 | 19.2 | 0.0158 | 1.02 | 6.09 | 13.8 | 8.88 | 17.3 | 5.51 | 12.9 | 1.9 | 9.24
